Reference: article PMC11507377, “Intricate Evolution of Multifunctional Lipoxygenase in Red Algae” (International Journal of Molecular Sciences, 2024)

Experiments:
SvLOX = target: T1, SvLOX (Shewanella violacea, UniProt D4ZL63); experiment: HPLC-MS and GC-MS of products; assay type: biochemical; settings: 100 μM ARA, 0.1 mg/mL enzyme, pH 8.0, 20 °C, 1 min (HPLC-MS) or 15 min (GC-MS)
T1 construct: gene SVI_2441; SRPBCC domain + LOX domain
T1 sequence (D4ZL63 1-839): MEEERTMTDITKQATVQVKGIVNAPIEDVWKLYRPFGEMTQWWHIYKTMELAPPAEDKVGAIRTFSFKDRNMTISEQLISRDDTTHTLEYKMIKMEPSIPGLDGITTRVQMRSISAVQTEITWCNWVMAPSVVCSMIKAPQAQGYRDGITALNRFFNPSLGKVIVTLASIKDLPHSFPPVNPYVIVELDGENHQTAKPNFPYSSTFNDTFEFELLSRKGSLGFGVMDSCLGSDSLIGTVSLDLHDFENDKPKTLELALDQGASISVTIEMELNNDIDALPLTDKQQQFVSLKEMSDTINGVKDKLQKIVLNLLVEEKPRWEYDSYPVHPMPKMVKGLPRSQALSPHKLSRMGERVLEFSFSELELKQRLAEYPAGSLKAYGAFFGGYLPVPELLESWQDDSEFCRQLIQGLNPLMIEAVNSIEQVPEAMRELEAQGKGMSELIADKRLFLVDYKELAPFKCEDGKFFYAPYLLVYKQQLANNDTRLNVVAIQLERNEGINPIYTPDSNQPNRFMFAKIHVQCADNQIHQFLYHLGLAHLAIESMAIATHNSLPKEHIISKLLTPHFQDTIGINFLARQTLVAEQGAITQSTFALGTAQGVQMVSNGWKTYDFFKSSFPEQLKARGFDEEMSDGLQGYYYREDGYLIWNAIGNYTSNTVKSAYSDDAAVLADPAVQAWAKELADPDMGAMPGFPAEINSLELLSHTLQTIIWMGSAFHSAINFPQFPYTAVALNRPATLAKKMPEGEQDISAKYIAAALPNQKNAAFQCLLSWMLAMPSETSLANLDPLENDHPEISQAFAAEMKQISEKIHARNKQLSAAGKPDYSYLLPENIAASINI

PhLOX [1] = target: T2, PhLOX (Pyropia haitanensis, UniProt J7JU42, F642V/F826L); settings: 100 μM ALA, 0.1 mg/mL enzyme, pH 8.0, 20 °C, 15 min
T2 construct: gene lox
T2 sequence (J7JU42 entry or part of it F642V/F826L): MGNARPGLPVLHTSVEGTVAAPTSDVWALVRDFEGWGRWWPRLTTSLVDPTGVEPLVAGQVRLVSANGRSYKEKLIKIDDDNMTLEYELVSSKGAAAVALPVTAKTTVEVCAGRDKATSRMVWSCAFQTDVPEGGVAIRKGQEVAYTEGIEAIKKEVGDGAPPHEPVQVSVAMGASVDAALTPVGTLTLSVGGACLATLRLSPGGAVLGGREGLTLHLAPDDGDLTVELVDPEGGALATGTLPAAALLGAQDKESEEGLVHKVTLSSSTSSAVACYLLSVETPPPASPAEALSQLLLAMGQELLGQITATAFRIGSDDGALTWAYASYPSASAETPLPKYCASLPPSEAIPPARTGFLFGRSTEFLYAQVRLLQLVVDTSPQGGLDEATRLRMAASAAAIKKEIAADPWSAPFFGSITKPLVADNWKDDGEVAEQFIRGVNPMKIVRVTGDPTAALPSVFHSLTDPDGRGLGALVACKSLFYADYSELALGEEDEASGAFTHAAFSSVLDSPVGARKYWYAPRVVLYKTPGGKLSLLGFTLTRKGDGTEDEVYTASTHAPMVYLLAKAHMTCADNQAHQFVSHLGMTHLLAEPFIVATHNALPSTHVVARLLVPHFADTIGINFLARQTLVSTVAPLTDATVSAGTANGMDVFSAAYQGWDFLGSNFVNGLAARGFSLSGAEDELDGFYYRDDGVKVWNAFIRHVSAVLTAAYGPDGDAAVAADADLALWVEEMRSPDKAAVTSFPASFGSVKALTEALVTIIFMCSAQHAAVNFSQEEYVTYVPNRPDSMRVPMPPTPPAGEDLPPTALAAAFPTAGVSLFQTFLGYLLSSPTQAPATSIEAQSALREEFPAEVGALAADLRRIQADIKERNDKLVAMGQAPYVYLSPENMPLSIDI

PhLOX [2] = target: T3, PhLOX (Pyropia haitanensis, UniProt J7JU42, F826L); settings: 100 μM ALA, 0.1 mg/mL enzyme, pH 8.0, 20 °C, 15 min
T3 construct: gene lox
T3 sequence (J7JU42 entry or part of it F826L): as the sequence (J7JU42 entry or part of it F642V/F826L) above, with V642F counted along it

| Compound | HPLC-MS and GC-MS of products (SvLOX) | HPLC-MS of products (PhLOX [1]) | HPLC-MS of products (PhLOX [2]) |
| --- | --- | --- | --- |
| CCCCC/C=C\C/C=C\C/C=C\C/C=C\CCCC(=O)O [arachidonic acid] | the incubation of ARA with SvLOX gave 12-hydroperoxy/hydroxy eicosatetraenoic acids |  |  |
| CC/C=C\C/C=C\C/C=C\CCCCCCCC(=O)O [α-linolenic acid] |  | When ALA was incubated with the F642V-F826L double mutant of PhLOX, 13-HpOTE was the dominating product | (ALA) was incubated with the F826L mutant of PhLOX, much more 9-HpOTE was formed |
